Reference: PMC5860131, “Identification of natural products as novel ligands for the human 5-HT2C receptor” (Biophysics Reports, 2018)

How the values were obtained:
[1] = target: T1, 5-HT2C receptor A222^5.46V (Homo sapiens, UniProt P28335, A222V/DEL255-298/G251D/H250E/H252N/INS299[…]/L248D/M247A/M300L/T253W); test: Affinity MS assay, 5-HT2C mutant A222V; assay type: binding; details: mutant A222^5.46V, n = 2
T1 construct: the N- and C-terminals were truncated by 39 and 65 residues, respectively; PreScission protease site + 10× His (C); made in house
T1 sequence (P28335 with tags, fused parts or gaps with the stated changes): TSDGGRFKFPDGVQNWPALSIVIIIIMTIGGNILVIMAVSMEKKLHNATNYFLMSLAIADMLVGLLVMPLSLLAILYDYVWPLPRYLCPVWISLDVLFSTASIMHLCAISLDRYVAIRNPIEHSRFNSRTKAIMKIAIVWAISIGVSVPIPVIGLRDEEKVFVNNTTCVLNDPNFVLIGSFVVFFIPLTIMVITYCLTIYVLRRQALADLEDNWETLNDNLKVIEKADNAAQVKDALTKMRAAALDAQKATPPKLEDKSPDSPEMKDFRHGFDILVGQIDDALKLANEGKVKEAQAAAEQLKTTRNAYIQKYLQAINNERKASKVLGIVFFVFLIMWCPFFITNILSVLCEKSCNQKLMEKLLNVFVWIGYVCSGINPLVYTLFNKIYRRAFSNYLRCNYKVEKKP
From the text: Based on the binding poses predicted by molecular docking, single-point mutations were designed to test their impact on ligand binding. Mutations of several residues include the highly conserved Asp134^3.32, which is known to cause 5-HT1B or 5-HT2B receptors to abolish the monoamine ligand binding as reported in the literature (Wang et al. [2013]). In this study, residues forming hydrophobic interactions with the substitution groups on the aporphine scaffold of (–)-crebanine (1) were selected for mutation as well and they are Thr139^3.37, Gly218^5.42, Ala222^5.46, and Leu209^ECL2. Effects of those mutations were tested with the CPM assay and the affinity MS assay (Table 2). In the affinity MS experiment, relative ligand-binding capacity (represented by binding %) to different mutants and the wild-type receptor was compared. Among the six mutations tested, five of them reduced the binding of (–)-crebanine (1) by more than 40% relative to binding to the wild-type receptor, displaying the importance of hydrophobic interactions. […]
Four experimental replicates were prepared for each pair of the test ligand and the negative control. […] S/C ratios refer to the ratio of MS response of a specific ligand detected in the 5-HT2C incubation sample versus the control. […]

[2] = target: T2, 5-HT2B receptor (Homo sapiens, UniProt P41595); test: Ca2+ mobilization assay (Fluo-4, FLIPR), HEK 293T cells stably transfected with 5-HT2B; assay type: cell-based
T2 construct: expressed in transfected cells; host or cells: HEK 293T, stably transfected
T2 sequence (P41595 whole entry): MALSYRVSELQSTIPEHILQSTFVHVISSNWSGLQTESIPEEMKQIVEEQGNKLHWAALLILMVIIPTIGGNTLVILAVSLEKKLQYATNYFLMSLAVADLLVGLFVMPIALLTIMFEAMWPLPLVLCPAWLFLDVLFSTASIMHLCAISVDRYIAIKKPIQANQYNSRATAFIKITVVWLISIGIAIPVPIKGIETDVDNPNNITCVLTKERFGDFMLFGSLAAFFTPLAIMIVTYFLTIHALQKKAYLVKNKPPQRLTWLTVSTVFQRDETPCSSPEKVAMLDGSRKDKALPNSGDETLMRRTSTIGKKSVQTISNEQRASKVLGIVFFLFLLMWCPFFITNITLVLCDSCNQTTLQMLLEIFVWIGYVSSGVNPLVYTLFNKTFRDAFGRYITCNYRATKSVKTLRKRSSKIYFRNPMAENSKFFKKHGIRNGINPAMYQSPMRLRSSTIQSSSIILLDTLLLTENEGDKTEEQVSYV
From the text: The 5-HT2C receptor mainly couples to Gαq proteins. The activated 5-HT2C receptor transmits the signals from the extracellular to the intercellular side using DAG/IP3 (diacyl glycerol/inositol 1,4,5-trisphosphate) as its second massagers (Hannon and Hoyer [2008]). IP3 stimulates the endoplasmic reticulum to release calcium ions into the cytoplasm, which causes the increase of calcium concentration in cytosol. Therefore, calcium mobilization assay is commonly applied to understand how unknown small molecule ligands of 5-HT2C receptor modulate cellular signal transductions. In this case, Fluo-4 Direct dye was used as a fluorescence indicator to detect calcium flux in G protein-coupled receptor expressed cells. The fold of maximum response over average of basal reading is plotted against compound concentration to determine the potency of the compounds (Fig. 3). […]. […] After the dye loaded, cells were placed in a FLIPR^TETRA fluorescence imaging plate reader (Molecular Devices); drug dilutions, prepared at 3× final concentration in FLIPR buffer and aliquotted into 384-well plates, were also added to the FLIPR^TETRA. The fluidics module and plate reader of the FLIPR^TETRA were programmed to read baseline fluorescence for 10 s (1 read/s), then to add 10 μl of drug/well and to read for 6 min (1 read/s). […]

Structure (SMILES): COc1ccc2c(c1OC)C[C@@H]1c3c(cc4c(c3-2)OCO4)CCN1C [Compound 1, (–)-crebanine]
- (–)-Crebanine/MS relative ligand binding [1]: 25.84%
- IC50 [2]: 1.69 µM
